Laboratory results from patent US11077120B2, “Prostaglandin receptor EP2 antagonists, derivatives, compositions, and uses related thereto” (Emory University, priority 2014, dated 2021).
Like-named read-outs stand apart in the source and are kept apart here.

Experiments:
human DP1 receptors = target: T1, human DP1 receptors (Homo sapiens, UniProt Q13258); experiment: cell-based cAMP TR-FRET assay, DP1 (agonist BW245C); settings: for selectivity against DP1: EP2 over DP1
T1 construct: expressed in transfected cells
T1 sequence (Q13258 1-359): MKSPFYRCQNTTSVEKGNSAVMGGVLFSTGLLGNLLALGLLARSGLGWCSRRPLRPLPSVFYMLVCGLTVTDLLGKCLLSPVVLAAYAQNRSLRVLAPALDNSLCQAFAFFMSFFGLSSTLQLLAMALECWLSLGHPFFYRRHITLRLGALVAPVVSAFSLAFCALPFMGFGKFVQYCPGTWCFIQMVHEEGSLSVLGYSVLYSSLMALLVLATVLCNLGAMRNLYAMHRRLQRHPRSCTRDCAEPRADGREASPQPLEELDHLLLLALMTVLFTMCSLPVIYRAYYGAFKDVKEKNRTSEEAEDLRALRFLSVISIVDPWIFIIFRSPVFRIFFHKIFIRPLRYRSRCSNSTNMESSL
Method: (§1) The synthesis was carried out starting from commercially available 2-methyl indole or 2-trifluoromethyl indoles (11a-c), which on treatment with bromoacetonitrile provided intermediates (12a-c), which then were subjected to lithium aluminum hydride to reduce cyanide to amines. […] Synthesized derivatives were tested by using a cAMP-derived TR-FRET assay, at single concentration (1 μM) to observe a rightward shift of PGE2 (an EP2 agonist) concentration response curve in a C6G cell line that overexpresses human EP2 receptors.
Intracellular cAMP was measured with a cell-based homogeneous time-resolved fluorescence resonance energy transfer (TR-FRET) method (Cisbio Bioassays). […] Endogenous cAMP produced by cells competes with labeled cAMP for binding to the cAMP antibody and thus reduces the FRET signal. Cells stably expressing human DP1, EP2, EP4, or IP receptors were seeded into 384-well plates in 30 μl complete medium (4,000 cells/well) and grown overnight. The medium was carefully withdrawn and 10 μl Hanks' Buffered Salt Solution (HBSS) (Hyclone) containing 20 μM rolipram was added into the wells to block phosphodiesterases. The cells were incubated at room temperature for 0.5-1 h and then treated with vehicle or test compound for 10 min before addition of increasing concentrations of appropriate agonist: BW245C for DP1, PGE2 for EP2 and EP4, or iloprost for IP. The cells were incubated at room temperature for 40 min, then lysed in 10 μl lysis buffer containing the FRET acceptor cAMP-d2 and 1 min later another 10 μl lysis buffer with anti-cAMP-Cryptate was added. […] The FRET signal was expressed as: F665/F590×10^4.

human EP2 receptors = target: T2, human EP2 receptors (Homo sapiens, UniProt P43116); experiment: cell-based cAMP TR-FRET assay, rightward shift of PGE2 concentration response curve (Schild KB), EP2; settings: for mechanism of antagonism of EP2: Schild regression analysis
T2 construct: expressed in transfected cells
T2 sequence (P43116 whole entry): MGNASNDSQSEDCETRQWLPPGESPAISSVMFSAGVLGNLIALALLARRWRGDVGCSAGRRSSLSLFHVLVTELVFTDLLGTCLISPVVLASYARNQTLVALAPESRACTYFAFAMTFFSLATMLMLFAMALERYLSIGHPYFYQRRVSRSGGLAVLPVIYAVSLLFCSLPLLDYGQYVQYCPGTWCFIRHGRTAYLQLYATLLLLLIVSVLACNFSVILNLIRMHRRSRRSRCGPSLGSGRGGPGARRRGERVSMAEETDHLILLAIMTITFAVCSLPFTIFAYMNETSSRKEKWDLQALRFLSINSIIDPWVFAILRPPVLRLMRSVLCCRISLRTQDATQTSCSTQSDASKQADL
Method: KB value indicates the antagonist concentration required for a twofold rightward shift in the PGE2 dose-response curve. Thus, a lower KB value indicates a higher inhibitory potency.
as §1
A lower KB value indicates a higher inhibitory potency.
(§2) Intracellular cAMP was measured with a cell-based homogeneous time-resolved fluorescence resonance energy transfer (TR-FRET) method (Cisbio Bioassays). […] Endogenous cAMP produced by cells competes with labeled cAMP for binding to the cAMP antibody and thus reduces the FRET signal. Cells stably expressing human DP1, EP2, EP4, or IP receptors were seeded into 384-well plates in 30 μl complete medium (4,000 cells/well) and grown overnight. The medium was carefully withdrawn and 10 μl Hanks' Buffered Salt Solution (HBSS) (Hyclone) containing 20 μM rolipram was added into the wells to block phosphodiesterases. The cells were incubated at room temperature for 0.5-1 h and then treated with vehicle or test compound for 10 min before addition of increasing concentrations of appropriate agonist: BW245C for DP1, PGE2 for EP2 and EP4, or iloprost for IP. The cells were incubated at room temperature for 40 min, then lysed in 10 μl lysis buffer containing the FRET acceptor cAMP-d2 and 1 min later another 10 μl lysis buffer with anti-cAMP-Cryptate was added. After 60-90 min incubation at room temperature, the FRET signal was measured by an Envision 2103 Multilabel Plate Reader (PerkinElmer Life Sciences) with a laser excitation at 337 nm and dual emissions at 665 nm and 590 nm for d2 and Cryptate (50 s delay), respectively. The FRET signal was expressed as: F665/F590×10^4.

human EP4 receptors = target: T3, human EP4 receptors (Homo sapiens, UniProt P35408); experiment: cell-based cAMP TR-FRET assay, EP4 (agonist PGE2); settings: for potency estimated from few doses / Selective Index EP4/EP2: Table 2; for potency estimated from few doses: extrapolated Schild KB from single concentration of 10 μM
T3 construct: expressed in transfected cells
T3 sequence (P35408 whole entry): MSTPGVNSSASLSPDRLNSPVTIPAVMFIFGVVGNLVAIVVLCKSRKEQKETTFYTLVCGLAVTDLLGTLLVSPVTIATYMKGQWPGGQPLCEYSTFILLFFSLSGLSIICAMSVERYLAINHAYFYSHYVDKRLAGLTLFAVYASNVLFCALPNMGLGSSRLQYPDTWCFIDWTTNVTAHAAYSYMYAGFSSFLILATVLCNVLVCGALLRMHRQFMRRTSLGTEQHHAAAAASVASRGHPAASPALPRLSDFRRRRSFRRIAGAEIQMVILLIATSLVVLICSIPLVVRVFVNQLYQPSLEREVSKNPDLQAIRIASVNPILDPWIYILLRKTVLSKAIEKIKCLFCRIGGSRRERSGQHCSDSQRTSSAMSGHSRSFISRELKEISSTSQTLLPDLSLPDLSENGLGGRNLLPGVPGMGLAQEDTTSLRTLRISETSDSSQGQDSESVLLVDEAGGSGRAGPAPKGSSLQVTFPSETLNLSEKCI
Method: (§3) These derivatives were selected for testing against EP4 and IP receptors. Cell lines were created that overexpress EP4 receptors, or IP receptors on C6-glioma cells. A cAMP-derived TR-FRET assay was developed using agonists PGE2 (for EP4) and iloprost (for IP), similar to EP2 assay.
as §2

human IP receptors = target: T4, human IP receptors (Homo sapiens, UniProt P43119); experiment: cell-based cAMP TR-FRET assay, IP (agonist iloprost); settings: for potency estimated from few doses / Selective Index (IP/EP2): Table 2; for potency estimated from few doses: extrapolated Schild KB from single concentration of 10 μM
T4 construct: expressed in transfected cells
T4 sequence (P43119 whole entry): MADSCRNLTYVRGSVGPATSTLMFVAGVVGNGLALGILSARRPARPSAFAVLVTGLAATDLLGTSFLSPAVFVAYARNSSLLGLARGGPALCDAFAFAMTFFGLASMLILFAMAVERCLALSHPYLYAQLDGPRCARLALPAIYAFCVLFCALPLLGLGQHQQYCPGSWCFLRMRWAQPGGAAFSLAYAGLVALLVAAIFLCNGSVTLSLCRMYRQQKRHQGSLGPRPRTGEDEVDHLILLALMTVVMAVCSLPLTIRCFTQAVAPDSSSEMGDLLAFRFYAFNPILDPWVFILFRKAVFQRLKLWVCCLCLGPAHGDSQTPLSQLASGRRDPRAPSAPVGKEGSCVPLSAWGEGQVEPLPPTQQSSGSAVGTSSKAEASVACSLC
Method: as §3, §2

C6-glioma cells = settings: rat
Method: CC50 are average one measurement run in triplicate.
Several of compounds were examined against EP4 and IP receptors at single concentration of 10 μM.

[1] = Table 1, Schild KB from single antagonist concentration 1 μM, average of 2-3 measurements in duplicate, read-out: EP2 KB
[2] = Table 2, average of 2-3 independent experiments in duplicate, read-out: KB EP2

| Structure (SMILES) | Kb (human DP1 receptors; Table 6, read-out: DP1 KB) [µM] | Kb (human EP2 receptors; Table 6, read-out: EP2 KB) [µM] | potency estimated from few doses (human EP4 receptors) [µM] | potency estimated from few doses (human IP receptors) [µM] | CC50 (C6-glioma cells) [µM] | other results |
| --- | --- | --- | --- | --- | --- | --- |
| COc1ccc(C(=O)NCCn2c(C)cc3ccccc32)cc1OC [Compound 6b] | 1.35 | 0.0267 |  |  |  | Kb (human EP2 receptors; [1]): 0.0223 µM |
| Cc1cc2ccccc2n1CCNC(=O)c1ccc(N(C)C)cc1 [Compound 6e, 4-(Dimethylamino)-N-(2-(2-methyl-1H-indol-1-yl)ethyl)benzamide] |  |  | 51 | 4.7 | 310 | Kb (human DP1 receptors; Table 2, read-out: KB DP1): 6.43 µM; Kb (human EP2 receptors; [1]): 0.0098 µM |
| CCN(CC)c1ccc(C(=O)NCCn2c(C)cc3ccccc32)cc1 [Compound 6f, 4-(Diethylamino)-N-(2-(2-methyl-1H-indol-1-yl)ethyl)benzamide] |  |  | 31.3 | 8 | 320 | selectivity against DP1 (human DP1 receptors): > 1200 fold; Selective Index (DP1/EP2) (human DP1 receptors; Table 2): 1,220; Kb (human DP1 receptors; Table 2, read-out: KB DP1): 3.19 µM; Selective Index EP4/EP2 (human EP4 receptors): 11,590; selectivity against the IP receptor (human IP receptors; EP2 over IP): ~3000 fold; Selective Index (IP/EP2) (human IP receptors): 2,960; Therapeutic Index (CC50/EP2 KB) (C6-glioma cells): 118,520; fold improved/higher EP2 potency in comparison to 6b (human EP2 receptors): ~8 fold; mechanism of antagonism of EP2 (human EP2 receptors): competitive; Kb (human EP2 receptors; [2]): 0.0027 µM; Kb (human EP2 receptors; single concentration values, read-out: EP2 potency (Schild KB)): ~0.01 µM |
| CCCN(CCC)c1ccc(C(=O)NCCn2c(C)cc3ccccc32)cc1 [Compound 6g] |  |  | 15.5 | 1.12 | 332 | Selective Index (DP1/EP2) (human DP1 receptors; Table 2): 298; Selective Index EP4/EP2 (human EP4 receptors): 1320; Selective Index (IP/EP2) (human IP receptors): 95; Therapeutic Index (CC50/EP2 KB) (C6-glioma cells): 28,130 |
| Cc1cc2ccccc2n1CCNC(=O)c1ccc(N2CCCC2)cc1 [Compound 7j, N-(2-(2-Methyl-1H-indol-1-yl)ethyl)-4-(pyrrolidin-1-yl)benzamide] |  |  | 28.7 | 14.2 | 337 | selectivity against DP1 (human DP1 receptors): 516 fold; Selective Index (DP1/EP2) (human DP1 receptors; Table 2): >516; Kb (human DP1 receptors; Table 2, read-out: KB DP1): > 10 µM; Selective Index EP4/EP2 (human EP4 receptors): 1,160; Selective Index (IP/EP2) (human IP receptors): 570; Therapeutic Index (CC50/EP2 KB) (C6-glioma cells): 16,120; Kb (human EP2 receptors; [2]): 0.0247 µM |
| Cc1cc2ccccc2n1CCNC(=O)c1ccc(N2CCCCC2)cc1 [Compound 7k, N-(2-(2-Methyl-1H-indol-1-yl)ethyl)-4-(piperidin-1-yl)benzamide] |  |  | 30.2 | 3.4 | 315 | Selective Index (DP1/EP2) (human DP1 receptors; Table 2): 273; Kb (human DP1 receptors; Table 2, read-out: KB DP1): 2.57 µM; Selective Index EP4/EP2 (human EP4 receptors): 3,210; Selective Index (IP/EP2) (human IP receptors): 360; Therapeutic Index (CC50/EP2 KB) (C6-glioma cells): 33,510; fold improved/higher EP2 potency in comparison to 6b (human EP2 receptors): about 2.3 fold; Kb (human EP2 receptors; [1]): 0.0094 µM |
| Cc1cc2ccccc2n1CCNC(=O)c1ccc(N2CCCCCC2)cc1 [Compound 7o] |  |  | 23.6 | 8.5 | 327 | Selective Index (DP1/EP2) (human DP1 receptors; Table 2): 342; Selective Index EP4/EP2 (human EP4 receptors): 1,045; Selective Index (IP/EP2) (human IP receptors): 375; Therapeutic Index (CC50/EP2 KB) (C6-glioma cells): 14,470 |
| Cc1cc2ccccc2n1CCNC(=O)c1ccc(N2CCOCC2)cc1 [Compound 7p, N-(2-(2-Methyl-1H-indol-1-yl)ethyl)-4-morpholinobenzamide] |  |  | 21 | 1.98 | 289 | Selective Index (DP1/EP2) (human DP1 receptors; Table 2): 533; Kb (human DP1 receptors; Table 2, read-out: KB DP1): 5.21 µM; Selective Index EP4/EP2 (human EP4 receptors): 2,190; Selective Index (IP/EP2) (human IP receptors): 206; Therapeutic Index (CC50/EP2 KB) (C6-glioma cells): 30,100; fold improved/higher EP2 potency in comparison to 6b (human EP2 receptors): about 2.3 fold; mechanism of antagonism of EP2 (human EP2 receptors): competitive; Kb (human EP2 receptors; [1]): 0.0096 µM |
| Cc1cc2ccccc2n1CCNC(=O)c1ccc(N2CCN(C)CC2)c(F)c1 [Compound 7u] |  |  | 4.76 | 64 | 300 | Selective Index (DP1/EP2) (human DP1 receptors; Table 2): 22; selectivity over EP4 (human EP4 receptors; EP2 over EP4): 100 fold; Selective Index EP4/EP2 (human EP4 receptors): 106; Selective Index (IP/EP2) (human IP receptors): 1,420; Therapeutic Index (CC50/EP2 KB) (C6-glioma cells): 6,660 |
| Cc1cc2ccccc2n1CCNC(=O)c1ccc(N2CCC(O)CC2)cc1 [Compound 7w] |  |  | 70.3 | 18.1 | 163 | Selective Index (DP1/EP2) (human DP1 receptors; Table 2): 172; Selective Index EP4/EP2 (human EP4 receptors): 2,629; Selective Index (IP/EP2) (human IP receptors): 675; Therapeutic Index (CC50/EP2 KB) (C6-glioma cells): 6,082; concentration showing an effect on cell viability (C6-glioma cells): > 100 µM |
| Cc1[nH]c2ccccc2c1CCNC(=O)c1ccc(N(C)C)cc1 [Compound 8z] |  |  | 16.4 | 63.1 | 320 |  |
| Cc1[nH]c2ccccc2c1CCNC(=O)c1ccc(N2CCOCC2)cc1 [Compound 9c] |  |  |  |  | 311 |  |
| Cc1cc2ccccc2n1CCNC(=O)c1cc(-c2ccccc2)no1 [TG7-242] |  | 0.0295 |  |  |  | DP1 KB (human DP1 receptors; Table 6): Inactive |
| Cc1cc2ccccc2n1CCNC(=O)c1cc(-c2ccc(F)cc2)n[nH]1 [TG7-245] | 140 | 0.0227 |  |  |  |  |
| Cc1cc2ccccc2n1C1CCCN(C(=O)c2ccc(N3CCOCC3)cc2)C1 (stereo not drawn) [TG7-292] |  | 1.79 |  |  |  | DP1 KB (human DP1 receptors; Table 6): Inactive |
| Cc1cc2ccccc2n1CCNC(=O)c1ccc(N=[N+]=[N-])cc1 [TG7-297] | 1.89 | 0.0894 |  |  |  |  |
| Cc1cc2cc(Br)ccc2n1CCNC(=O)c1ccc(N2CCOCC2)cc1 [TG7-300] | 18.9 | 0.247 |  |  |  |  |
| Cc1cc2ccccc2n1CCNC(=O)c1ccc(OCCO)c(OCCO)c1 [TG8-3] | 62.9 | 0.271 |  |  |  |  |
| Cc1cc2ccccc2n1CCNC(=O)c1ccc(OCCO)cc1 [TG8-12] | 2.74 | 0.133 |  |  |  |  |
| CCOC(=O)C1CCN(c2ccc(C(=O)NCCn3c(C(F)(F)F)cc4ccccc43)cc2)CC1 [TG8-42] | 3.24 | 2.74 |  |  |  |  |
| O=C(NCCn1c(C(F)(F)F)cc2ccccc21)c1ccc(N2CCC(C(=O)O)CC2)cc1 [TG8-46] | 1.06 | 0.413 |  |  |  |  |
| O=C(NCCn1c(C(F)(F)F)cc2ccccc21)c1ccc(-c2nnn[nH]2)cc1 [TG8-47] | 0.795 | 1.11 |  |  |  |  |
| C#Cc1ccc(C(=O)NCCn2c(C)cc3ccccc32)cc1 [TG8-52] | 0.609 | 0.0775 |  |  |  |  |
| Cc1cc2ccccc2n1CCNC(=O)c1ccc(-c2cn(COCc3ccccc3)nn2)cc1 [TG8-54] | 3.39 | 0.164 |  |  |  |  |
| Cc1cc2ccccc2n1CCNC(=O)c1ccc(-c2cn(Cc3ccccc3)nn2)cc1 [TG8-55] | 6.96 | 0.305 |  |  |  |  |
| Cc1cc2ccccc2n1CCNC(=O)c1cnc(N2CCC(CO)CC2)nc1 [TG8-59] | 5.85 | 0.159 |  |  |  |  |
| Cc1cc2ccccc2n1CCNC(=O)c1ccc(-n2cc(CO)nn2)cc1 [TG8-60] | 2.42 | 0.0282 |  |  |  |  |
